Drawing on ChEMBL document CHEMBL4342450, “Antitumor Activity of Ohmyungsamycin A through the Regulation of the Skp2-p27 Axis and MCM4 in Human Colorectal Cancer Cells” (J Nat Prod, 2020), this text covers IC50 for one compound.

One experiment deals with MDA-MB-231. Nature of the experiment: Antiproliferative activity against human MDA-MB-231 cells after 72 hrs by sulforhodamine B assay. The format is functional, cell-based. To be noted: MDA-MB-231, 72 h. Background: In SRB staining, fixed cells bind dye roughly in proportion to their protein.
The next experiment has as its system HCT-116. The experiment in a line: Antiproliferative activity against human HCT116 cells after 72 hrs by sulforhodamine B assay. The format is functional, cell-based. As to conditions: HCT-116, 72 h.
A further experiment relates to A549. The experiment in a line: Antiproliferative activity against human A549 cells after 72 hrs by sulforhodamine B assay. In kind it is functional, cell-based. To be noted: A549, 72 h.
The next experiment has as its system SK-HEP1. The experiment in a line: Antiproliferative activity against human SKHEP1 cells after 72 hrs by sulforhodamine B assay. In kind it is functional, cell-based. As to conditions: SK-HEP1, 72 h.
Another experiment relates to SNU-638. The experiment in a line: Antiproliferative activity against human SNU638 cells after 72 hrs by sulforhodamine B assay. In kind it is functional, cell-based. As to conditions: SNU-638, 72 h.
The next experiment has as its system MRC5. The experiment in a line: Antiproliferative activity against human MRC5 cells after 72 hrs by sulforhodamine B assay. To be noted: MRC5, 72 h. The format is cell-based.

Usually IC50 stands for the concentration that inhibits the measured activity by half. The low end stands for inhibition by little substance, the high end for a need for much substance.

Regarding `COc1cc([C@@H]2c3cc4c(cc3[C@@H](O[C@@H]3O[C@@H]5CO[C@@H](C)O[C@H]5[C@H](O)[C@H]3O)[C@H]3COC(=O)[C@H]23)OCO4)cc(OC)c1O` [ETOPOSIDE], the IC50 in the experiment on MDA-MB-231 was determined as 3850 nM; in the experiment on HCT-116, 520 nM; in the experiment on A549, 480 nM; with SK-HEP1, 780 nM; with SNU-638 it was 820 nM; in the experiment on MRC5, 11200 nM.
